The molecules below were run against MGAT2 (microsomal fraction of human small intestine) (Homo sapiens (Human), UniProt Q3SYC2) (assay: Test Example 2: Test of MGAT2 inhibitory action (microsomal fraction of human small intestine, 3H-labeled 2-monooleoyl glycerol)). Details: microsomal fraction of human small intestine 5 μg/ml; 4 μM oleoyl-CoA, 1.25 μM 2-monooleoyl glycerol, 0.125 μM 3H-labeled 2-monooleoyl glycerol; room temperature 30 min; read-out: Activity Value [nM] (IC50, concentration at which 50% of the products 3H-labeled dioleoyl glycerol and trioleoyl glycerol was inhibited).
MGAT2 (microsomal fraction of human small intestine), sequence (Q3SYC2 whole entry): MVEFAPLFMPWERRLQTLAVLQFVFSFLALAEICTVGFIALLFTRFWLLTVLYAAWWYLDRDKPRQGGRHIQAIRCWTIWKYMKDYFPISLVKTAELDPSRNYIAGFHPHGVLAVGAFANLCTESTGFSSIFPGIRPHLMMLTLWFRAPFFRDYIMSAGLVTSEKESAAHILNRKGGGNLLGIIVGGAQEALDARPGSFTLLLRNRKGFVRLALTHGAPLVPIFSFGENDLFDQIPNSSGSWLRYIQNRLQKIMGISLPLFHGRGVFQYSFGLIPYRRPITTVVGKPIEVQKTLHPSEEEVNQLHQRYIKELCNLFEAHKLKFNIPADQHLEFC
Format: biochemical
Method: An MGAT2 inhibition test for test compounds was conducted in accordance with a partially modified version of the method described in John F. Lockwood et al., Am. J. Physiol. Endocrinol. Metab., 2003, 285, E927.
A 10 mg/mL microsomal fraction of human small intestine (duodenum- and jejunum-derived fraction purchased from Becton Dickinson Japan) was used as an enzyme source.
The test was conducted using a flat-bottom 96-well plate (Corning).
A buffer solution with final concentrations of 5 mM magnesium chloride, 1.25 mg/ml bovine serum albumin and 100 mM Tris-HCl (pH=7.5) was prepared and the microsomal fraction of human small intestine was added thereto to give a final concentration of 5 μg/ml. […] Thereafter, final concentrations of 5 mM magnesium chloride, 1.25 mg/ml bovine serum albumin, 100 mM Tris-HCl (pH=7.5), 4 μM oleoyl-CoA, 1.25 μM 2-monooleoyl glycerol and 0.125 μM ^3H-labeled 2-monooleoyl glycerol (Muromachi Yakuhin Co., Ltd.) were added thereto to give a total volume of 100 μl. This mixture was reacted at room temperature for 30 min.
The reaction was stopped by adding an equal amount of isopropanol to the reaction mixture. The substrate contained in the reaction mixture (^3H-labeled 2-monooleoyl glycerol) and the reaction products (^3H-labeled dioleoyl glycerol and trioleoyl glycerol) were separated by adsorbing them onto an octadecylsilane resin (Wako gel 50C18) (Wako Pure Chemical Industries, Ltd.), removing the substrate by use of 80% isopropanol, and then eluting the reaction products with 100% isopropanol. The amounts of the reaction products were measured with MicroBeta (PerkinElmer Japan).

Row | IC50 [nM] | Compound
1 | 16 | Cc1ccc(-n2cc(CN3CCc4cc(S(=O)(=O)Nc5ccc(CCCC6CCCC6)cc5F)ccc4C3)cn2)cc1 [Working Example 7-76]
2 | 66 | Cc1ccc(-n2nc(C)c(CN3CCc4cc(S(=O)(=O)Nc5ccc(CCCC6CCCC6)cc5F)ccc4C3)c2C)cc1 [Working Example 7-80]
3 | 45 | Cc1cc(CN2CCc3cc(S(=O)(=O)Nc4ccc(CCCC5CCCC5)cc4F)ccc3C2)c(C)n1-c1cccc(C(F)(F)F)c1 [Working Example 7-81]
4 | 189 | Cc1nn(C)c(C)c1CN1CCc2cc(S(=O)(=O)Nc3ccc(CCCC4CCCC4)cc3F)ccc2C1 [Working Example 7-82]
5 | 145 | Cc1cc(CN2CCc3cc(S(=O)(=O)Nc4ccc(CCCC5CCCC5)cc4F)ccc3C2)c(C)n1-c1ccncc1 [Working Example 7-88]
6 | 140 | CC(C)(C)n1cc(CCN2CCc3cc(S(=O)(=O)Nc4ccc(CCCC5CCCC5)cc4F)ccc3C2)cn1 [Working Example 7-91]
7 | 29 | CC(C)(C)c1ccc(CCN2CCc3cc(S(=O)(=O)Nc4ccc(OCCC5CCCC5)cc4F)ccc3C2)cc1 [Working Example 8-5]
8 | 35 | CC(C)(C)c1ccc(CCN2CCc3cc(S(=O)(=O)Nc4ccc(OCCCS(=O)(=O)c5ccccc5)cc4F)ccc3C2)cc1 [Working Example 8-6]
9 | 235 | CC(C)(C)c1cc(CN2CCc3cc(S(=O)(=O)Nc4ccc(OCCC5CCOCC5)cc4F)ccc3C2)ccn1 [Working Example 8-7]
10 | 178 | CC(C)(C)c1ccc(CCN2CCc3cc(S(=O)(=O)Nc4ccc(OCCOCC5CCCCO5)cc4F)ccc3C2)cc1 (stereo not shown) [Working Example 8-8]
11 | 160 | CC(C)(C)c1ccc(CCN2CCc3cc(S(=O)(=O)Nc4ccc(OCCOCC5CCCO5)cc4F)ccc3C2)cc1 (stereo not shown) [Working Example 8-9]
12 | 148 | CC(C)(C)c1ccc(CCN2CCc3cc(S(=O)(=O)Nc4ccc(OCCC5CCOC5)cc4F)ccc3C2)cc1 (stereo not shown) [Working Example 8-10]
13 | 169 | CC(C)(C)c1ccc(CCN2CCc3cc(S(=O)(=O)Nc4ccc(OCC[C@H]5CCOC[C@H]5F)cc4F)ccc3C2)cc1 [Working Example 8-11]
14 | 158 | CC(C)(C)c1ccc(CCN2CCc3cc(S(=O)(=O)Nc4ccc(OCCCOCC(F)(F)F)cc4F)ccc3C2)cc1 [Working Example 8-12]
15 | 137 | CC(C)(C)c1ccc(CCN2CCc3cc(S(=O)(=O)Nc4ccc(OCCOC5CCCCC5)cc4F)ccc3C2)cc1 [Working Example 8-13]
16 | 68 | CC(C)(C)c1ccc(CCN2CCc3cc(S(=O)(=O)Nc4ccc(OCCCOC5CCCC5)cc4F)ccc3C2)cc1 [Working Example 8-14]
17 | 204 | CC(C)(C)c1ccc(CCN2CCc3cc(S(=O)(=O)Nc4ccc(OCC[C@H]5CCOC[C@@H]5F)cc4F)ccc3C2)cc1 [Working Example 8-15]
18 | 46 | CC(C)(C)c1cnc(CCN2CCc3cc(S(=O)(=O)Nc4ccc(CCCC5CCCC5)cc4F)ccc3C2)cn1 [Working Example 9-23]
19 | 46 | O=S(=O)(Nc1ccc(CCCC2CCCC2)cc1F)c1ccc2c(c1)CCN(CCc1ccc(C(F)(F)F)cn1)C2 [Working Example 9-24]

— patent US9035059B2, “Nitrogen-containing condensed heterocyclic compound” (TAISHO PHARMACEUTICAL CO., LTD., priority 2011, dated 2015)
